Like-named read-outs stand apart in the source and are kept apart here. Each block holds one compound with its values, some of them ahead of it.
Legend:
serotonin = type: in vivo, humans
Procedure: Studies on humans: The study was approved by the University Human Ethics Committee. Seven apparently healthy, young male volunteers aged 23 ± 2.4 ( ± SD) years gave informed consent to participate in the study. Each participant received theophylline (slow release) at a dosage of approximately 5 mg/kg body weight/day for one week. Thereafter, the theophylline dosage was increased to maintain plasma theophylline levels of approx. 10 mg/liter for 15 weeks. During the last week of the study (16th week) the participants were supplemented with 10 mg of vitamin B6 (B6) as herein described per day.
Clin. Chem. 35: 43-47. Serotonin concentrations were subsequently determined by HPLC according to the method of Tsuchiya et al.)

[1] = test system: glutamate pyruvate transaminase (GPT) in red blood cells; type: in vivo, human
Procedure: The inventor carried out clinical tests in human volunteers to investigate the effect of theophylline on glutamate pyruvate transaminase (GPT) in red blood cells, which plays an important biochemical role. […] When theophylline was administered there took place a dramatic drop in both PLP due to the inactivation of the kinase, and after approximately 28 days, also of RBC GPT levels as newly formed RBC (produced in the bone marrow under conditions of reduced PLP availability) begin to appear in the circulation.
As predicted, the body did indeed try to compensate for this by forming progressively more kinase. […] Thus the increased levels of kinase were unable to reverse the theophylline induced PLP deficiency and the concommittant GPT deficiency.

PL-kinase = target: T1, PL-kinase (Homo sapiens, UniProt O00764); assay: Enzyme kinetic studies of PL-kinase inhibition; type: biochemical
T1 sequence (O00764 1-312): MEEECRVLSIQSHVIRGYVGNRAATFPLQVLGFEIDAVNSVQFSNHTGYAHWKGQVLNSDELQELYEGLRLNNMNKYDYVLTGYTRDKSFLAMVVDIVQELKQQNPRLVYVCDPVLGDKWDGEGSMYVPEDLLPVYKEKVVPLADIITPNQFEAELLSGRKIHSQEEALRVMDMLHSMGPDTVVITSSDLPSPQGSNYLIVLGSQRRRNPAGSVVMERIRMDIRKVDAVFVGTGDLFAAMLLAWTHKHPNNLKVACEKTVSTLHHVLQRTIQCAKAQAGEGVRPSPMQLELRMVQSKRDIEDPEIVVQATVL

[2] = test system: B6 dependent intracellular pathways; assay: Very low doses of PN in humans; type: in vivo; conditions: 0,02 mg/kg in humans
[3] = test system: vitamin B6 levels in human plasma and cells; assay: Applicant's investigations of enprofylline and vitamin B6 levels

Compound: Cc1ncc(CO)c(CO)c1O.Cl [vitamin B6]
urinary serotonin excretion (serotonin; one week of B6 supplementation (10 mg per day) during theophylline therapy): returned urinary serotonin excretion to pre-treatment levels
PLP deficiency induced by the xanthine bronchodilator ([1]; low dosage supplementation with Vitamin B6): almost immediately reversed

Compound: Cn1c(=O)c2[nH]cnc2n(C)c1=O [theophylline]
Urinary serotonin excretion, Basal (serotonin; 112 days of theophylline treatment, preceded by 1 week of vitamin B6 supplementation (10 mg/day), mean (SD)): 0.562 (0.127) umol/24 h
Urinary serotonin excretion after tryptophan loading (serotonin; human, in vivo): the observed changes were not statistcially significant
PLP ([1]; human, in vivo): dramatic drop
PLP content and GPT content ([1]; human, in vivo): remained depressed for as long as 100 days
type of PL-kinase inhibition (PL-kinase): non-competitive

half-life (plasma): 12 min
Compound: Cc1ncc(CO)c(CO)c1O [PN, pyridoxine]
extracellular PL and PLP levels [2]: without affecting extracellular PL and PLP levels materially
influence on B6 dependent intracellular pathways [2]: profound influence

half-life (in vivo): 30 to 40 min
Compound: Cc1ncc(CO)c(C=O)c1O [PL, pyridoxal]

Compound: CCCn1c(=O)[nH]c(=O)c2[nH]cnc21 [enprofylline, 3-propylxanthine]
effect on vitamin B6 levels in human plasma and cells [3]: adverse effect

From patent EP0416248A2, “Use of vitamine B6 for reducing elevated serotonin levels” (priority 1989, dated 1991)
